In US20060014704A1, “Compounds and their preparation for the treatment of Alzheimer's disease by inhibiting beta-amyloid peptide production” (priority 2004, published 2006):
“Also recorded” adds a separate entry of the source.

Experiments:
[1] = system: Aβ40 and Aβ42 production, CHO cells stably transfected with human APP695; assay: Secreted Aβ40/Aβ42 ELISA in CHO cells expressing human APP (CHO-APP cells); format: cell-based, Chinese hamster; set-up: key to Aβ42-lowering activity: Aβ42-lowering activity (“Yes”); no profound effects (“No”); non-determined (“ND”); Ginsenosides that affected cell viability are indicated as “Cytotoxic.”; details: for Aβ42-lowering activity: summary of Tables 1-3; for inhibitory effects on Aβ40 production / inhibitory effects on Aβ42 production: ginsenosides of unprocessed ginseng, 8 hours, FIG. 10 (50 μM)
Method: The CHO cells were treated with the indicated compounds (at 50 μg/ml) for 8 hrs. Aβ42 levels in the medium were measured by ELISA and normalized to intracellular full-length APP.
The potential effects of ginsenosides and their analogues in treating AD were examined. First, a number of ginsenosides were screened based on their effects on Aβ generation. The effects of various ginsenosides on Aβ (e.g., Aβ40 and Aβ42) production was initially accessed by incubating the Chinese hamster ovary (CHO) cells expressing human APP(CHO-APP cells) with each ginsenoside purified from unprocessed ginseng (known as “white ginseng”). These representative ginsenosides included Rb1, Rb2, Rc, Rd, Re, Re, Rg1 and Rg2 and differ in their side chains and sugar moieties.
After 8 hours of incubation, the media were collected and the levels of secreted Aβ40 and Aβ42 were determined by ELISA.

[2] = target: γ-secretase (Homo sapiens, UniProt P49768); assay: Cell-free γ-secretase assay (CHAPSO-solubilized membrane fractions, recombinant substrates, Aβ ELISA); format: biochemical; details: cell-free γ-secretase assay, FIG. 15 (100 μM in A)
Method: (A) CHAPSO-solubilized membrane fractions were incubated with recombinant γ-secretase substrates together with the indicated compounds (at 100 μM) and the levels of Aβ42 and Aβ40 were determined by ELISA as described (27-29). (B) Dose-response of Aβ40 and Aβ42-lowering activity of Rk1 and (20S)Rg3 in a cell-free γ-secretase assay.
Next, the inhibitory effects of Rk1 and (20S)Rg3 on Aβ generation in an in vitro γ-secretase assay was studied. […] In contrast, naproxen, an NSAID without Aβ42-lowering activity, had no effects on Aβ42 production (FIG. 15A).

[3] = system: Aβ42 production in mammalian cells; details: Tae-Wan Kim et al.; cited from earlier work
[4] = system: Aβ40 and Aβ42 production, CHO-APP/PS1 cells; assay: Secreted Aβ ELISA in CHO-APP/PS1 cells (wild-type PS1); format: cell-based, Chinese hamster; details: heat-processing derived ginsenosides, 50 μM, 8 hrs, FIG. 11
Method: The effects of Rg5 on the Aβ42 generation were much smaller as compared to Rgk351 and Rk1.
FIG. 10 depicts the effects of native ginsenosides on Aβ42 production. CHO cells stably transfected with human APP695 together with either wild-type (A, CHO-APP/PS1 cells) or ΔE9 FAD mutant (B, CHO-APP/ΔE9PS1 cells) forms of PS1 were used. Cells were treated with the indicated compounds (at 50 μM) for 8 hrs. Levels of secreted Aβ40 and Aβ42 in the medium were determined by ELISA and normalized to intracellular full-length APP. In CHO-APP/PS1 cells, average Aβ amounts in control samples were 320 pM for Aβ40 and 79 pM for Aβ42. The relative levels of Aβ and Aβ42 were normalized to values obtained from non-treated and vehicle-treated cells and are shown as % to control+s.d.). One of three representative experiments are shown.
CHO-APP/PS1 (A) and CHO-APP/ΔE9PS1 (B) cells were treated with the indicated compounds at 50 μM for 8 hrs and the levels of secreted Aβ40 and Aβ42 were determined as described in FIG. 1. […] The PS1-ΔE9 FAD mutation diminished the Aβ42 response to Rk1 treatment (B).

[5] = system: Aβ40 and Aβ42 generation, Neuro2a-SW cells; assay: Aβ generation in Neuro2a cells expressing human Swedish mutant APP (Neuro2a-SW); format: cell-based, mouse; details: FIG. 16
From the text: FIG. 16 depicts the effects of two major metabolites of ginsenosides, including 20(S)-protopanaxatriol (PPT) and 20(S)-protopanaxadiol (PPD) on Aβ42 generation. 20(S)-panaxatriol (PT) and 20(S)-panaxadiol (PD) are the artificial derivatives of PPT and PPPD, respectively.
Ginsenosides are metabolized by human intestinal bacteria after oral administration of ginseng extract (Kobayashi K., et al., Metabolism of ginsenoside by human intestinal bacteria [II] Ginseng Review 1994; 18: 10-14; Hasegawa H., et al., Main ginseng saponin metabolites formed by intestinal bacteria. Planta Med. 1996; 62: 453-457.). Therefore, the effects of two major metabolites of ginsenosides, including 20(S)-protopanaxatriol (PPT) and 20(S)-protopanaxadiol (PPD) on Aβ42 generation were tested. 20(S)-panaxatriol (PT) and 20(S)-panaxadiol (PD) are the artificial derivatives of PPT and PPPD, respectively.

[6] = CHO cells expressing wild-type human APP, PPT/PT

C=C(CCC=C(C)C)[C@H]1CC[C@]2(C)[C@@H]1[C@H](O)C[C@@H]1[C@@]3(C)CC[C@H](O)C(C)(C)[C@@H]3[C@@H](O[C@@H]3O[C@H](CO)[C@@H](O)[C@H](O)[C@H]3O)C[C@]12C [Rk3]
Aβ42-lowering activity [1]: No

COc1ccc2cc([C@H](C)C(=O)O)ccc2c1 [naproxen, reference compound]
Aβ42 generation in vitro [2]: no effects

CC(C)=CC/C=C(\C)[C@H]1CC[C@]2(C)[C@@H]1[C@H](O)C[C@@H]1[C@@]3(C)CC[C@H](O)C(C)(C)[C@@H]3[C@@H](O[C@@H]3O[C@H](CO)[C@@H](O)[C@H](O)[C@H]3O)C[C@]12C [Rh4]
Aβ42-lowering activity [1]: No

CC(C)=CCC[C@](C)(O[C@@H]1O[C@H](CO)[C@@H](O)[C@H](O)[C@H]1O)[C@H]1CC[C@]2(C)[C@@H]1[C@H](O)C[C@@H]1[C@@]3(C)CC[C@H](O)C(C)(C)[C@@H]3[C@@H](O[C@@H]3O[C@H](CO)[C@@H](O)[C@H](O)[C@H]3O)C[C@]12C [Rg1]
amyloid-reducing activity in vitro [3]: no amyloid-reducing activity in vitro | inhibitory effects on Aβ40 production [1]: None | inhibitory effects on Aβ42 production [1]: None | Aβ42-lowering activity [1]: No

CC(C)=CCC[C@](C)(O)[C@H]1CC[C@]2(C)[C@@H]1[C@H](O)C[C@@H]1[C@@]3(C)CC[C@H](O)C(C)(C)[C@@H]3[C@@H](O[C@@H]3O[C@H](CO)[C@@H](O)[C@H](O)[C@H]3O)C[C@]12C [Rh1]
secretion of Aβ42 [4]: not significant; also recorded: not affected | Aβ42-lowering activity [1]: No

CC(C)=CCC[C@](C)(O)[C@H]1CC[C@]2(C)[C@@H]1[C@H](O)C[C@@H]1[C@@]3(C)CC[C@H](O)C(C)(C)[C@@H]3CC[C@]12C [PPD, 20(S)-protopanaxadiol]
inhibitory effects on Aβ40 generation [5]: did not confer any inhibitory effects | inhibitory effects on Aβ42 generation [5]: did not confer any inhibitory effects | Aβ42-lowering activity [1]: No

CC1(C)CCC[C@](C)([C@H]2CC[C@]3(C)[C@@H]2[C@H](O)C[C@@H]2[C@@]4(C)CC[C@H](O)C(C)(C)[C@@H]4[C@@H](O)C[C@]23C)O1 [PT, 20(S)-panaxatriol]
levels of Aβ42 ([5]; Neuro2a-SW): without affecting | production of Aβ42 ([5]; Neuro2a-SW): reduced the production of Aβ42 | levels of Aβ42 [1, 6]: without affecting | production of Aβ42 [1, 6]: reduced the production of Aβ42

CC(C)=CCC[C@](C)(O[C@@H]1O[C@H](CO[C@@H]2O[C@H](CO)[C@@H](O)[C@H](O)[C@H]2O)[C@@H](O)[C@H](O)[C@H]1O)[C@H]1CC[C@]2(C)[C@@H]1[C@H](O)C[C@@H]1[C@@]3(C)CC[C@H](O[C@@H]4O[C@H](CO)[C@@H](O)[C@H](O)[C@H]4O[C@@H]4O[C@H](CO)[C@@H](O)[C@H](O)[C@H]4O)C(C)(C)[C@@H]3CC[C@]12C [Rb1]
inhibitory effects on Aβ40 production [1]: None | inhibitory effects on Aβ42 production [1]: None | Aβ42-lowering activity [1]: No
